# According to ChEMBL document CHEMBL5046291, “Evodiamine-Inspired Topoisomerase-Histone Deacetylase Dual Inhibitors: Novel Orally Active Antitumor Agents for Leukemia Therapy” (J Med Chem, 2022):
# Activity calls are given as the source filed them. No cut-off for these calls is given here.
# Target: T1, DNA topoisomerase 1 (Homo sapiens) (UniProt P11387)
# T1 sequence (whole entry): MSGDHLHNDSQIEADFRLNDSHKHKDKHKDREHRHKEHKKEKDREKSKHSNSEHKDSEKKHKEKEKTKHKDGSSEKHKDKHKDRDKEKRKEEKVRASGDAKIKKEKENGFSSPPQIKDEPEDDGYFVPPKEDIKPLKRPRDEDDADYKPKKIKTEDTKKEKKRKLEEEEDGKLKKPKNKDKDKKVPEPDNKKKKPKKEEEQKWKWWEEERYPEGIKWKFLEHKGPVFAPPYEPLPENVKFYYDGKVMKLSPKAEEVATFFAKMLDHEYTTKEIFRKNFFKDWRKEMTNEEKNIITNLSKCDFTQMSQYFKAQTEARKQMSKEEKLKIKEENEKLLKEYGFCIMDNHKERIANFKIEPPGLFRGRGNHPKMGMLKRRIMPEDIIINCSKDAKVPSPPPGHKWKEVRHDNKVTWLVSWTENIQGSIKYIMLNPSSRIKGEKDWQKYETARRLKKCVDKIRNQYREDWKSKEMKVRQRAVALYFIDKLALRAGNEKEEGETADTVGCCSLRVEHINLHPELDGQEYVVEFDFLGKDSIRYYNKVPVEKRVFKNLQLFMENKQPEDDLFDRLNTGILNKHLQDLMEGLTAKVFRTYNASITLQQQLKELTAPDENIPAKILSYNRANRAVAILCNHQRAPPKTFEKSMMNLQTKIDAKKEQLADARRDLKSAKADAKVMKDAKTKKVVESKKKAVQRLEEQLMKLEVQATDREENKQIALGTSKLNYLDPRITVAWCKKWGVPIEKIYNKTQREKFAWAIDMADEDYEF
# Test: Inhibition of recombinant Top1 (unknown origin) assessed as inhibition of relaxation of supercoiled pBR322 plasmid DNA at 100 uM incubated for 15 mins by ethidium bromide staining based agarose gel electrophoresis analysis
structure (smiles),measurement,value
CN1c2ccc(F)cc2C(=O)N2CCc3c([nH]c4ccc(OCc5ccc(/C=C/C(=O)NO)cc5)cc34)C21 (stereo unspecified),inhibition,Active
